Results: patent publication US20100267653A1, “USE OF COUMARIN DERIVATIVES IN ANTIFUNGAL THERAPY” (priority 2006, published 2010)
In brackets after ≈: the same amount, converted by molar mass.

Columns and labels:
[1] = test system: Trichophyton rubrum NCPF118; experiment: Antifungal activity, growth in RPMI 1640 microtitre plates (OD 530 nm); type: cell-based; settings: for MIC: Trichophyton rubrum, T. rubrum NCPF118, 30° C., read-out: MIC
Protocol: (§1) Esculin, esculetin and a range of other coumarins and their glycosides were tested for their antifungal activity against Trichophyton rubrum, Trichophyton interdigitale and other fungi isolated from nails and skin.
(§2) Suspensions of fungal conidia and hyphal fragments for use as experimental inocula were prepared by adding 3 ml of demineralised water or 0.15% (w/v) NaCl solution to a slope culture which had been incubated at 30° C. for 7 to 10 days and probing the surface of the culture with a sterile plastic transfer pipette. […] The resulting suspension was filtered through a double layer of sterile surgical gauze; if necessary a further volume of up to 3 ml of water or 0.15% (w/v) NaCl was used to wash through any spores or small hyphal fragments held on the gauze. 100 μl of this suspension, adjusted to an optical density between 0.14 and 0.16 at 530 nm (corresponding to between 0.5 and 1.5×10^6 propagules/ml) was added to the wells in sterile 96-well microtitre plates to which 100 μl of 2× strength RPMI 1640 media (a chemically-defined nutrient medium widely used in tissue culture and antimicrobial resistance testing) had been added. Inocula prepared in this way were used in all of the experiments; additionally, for some experiments with esculin shown in FIG. 4, the results obtained with standard inocula prepared as described above (labelled “young inoculum” in FIG. 4), were compared with the results obtained in similar tests using inocula which had been cultured for up to 9 weeks (labelled “old inoculum” in FIG. 4). As appropriate, coumarins were pre-dissolved in 2× strength RPMI 1640 medium before addition to the plate. Experiments with the yeasts Candida albicans and Candida krusei were set up in the same way, but in these cases, filtration of the cell suspensions was not necessary.
(§3) Solubilisation of other compounds required the presence of DMSO. Esculetin, daphnetin, 4-(trifluoromethyl) coumarin, 4-(trifluoromethyl)-coumarin-7-0-glucose and cichoriin were dissolved in DMSO at 1000× final test concentration; when this solution was diluted to the concentration used in the experiments using 2× strength RPMI 1640 medium, the final concentration of DMSO was […] which alone had no effect on the fungi when tested in several experiments performed. Fraxetin required a final concentration of 0.2% DMSO, but this too had no effect on the growth of the fungi when tested in separate experiments.
(§4) A series of dilutions of the coumarin solutions was prepared on the plates by mixing known volumes of the coumarin stock solutions in the wells with fresh volumes of 2×RPMI 1640 medium. Each concentration of coumarin was studied in triplicate wells. For observations on Trichophyton rubrum NCPF118 and Trichophyton interdigitale NCPF335, obtained from the National Collection of Pathogenic Fungi (Bristol), the plates were incubated in a Bio-Tek Powerwave XS scanning plate reader at 30° C., and fungal growth within the plates was measured at intervals of 2 h for up to 72 h or 96 h as specified in the text by recording the absorbance (optical density) of the wells at 530 nm. Observations on Candida albicans and Candida krusei were made in the same way, but the incubation temperature was 37° C. and the incubation time was 48 h. For observations with clinical fungal isolates obtained from the collection of M. Monod (Lausanne, Switzerland), the procedure was as described above except that in response to the relatively slow growth of these isolates, incubations were performed in a static incubator at 30° C. and the plates were read manually in a Bio-Tek Powerwave XS scanning plate reader at intervals of 24 h for up to 168 h, being returned to the incubator after each reading. Malassezia furfur grows poorly in the system described above, so for this organism, a standard inoculum of M. furfur was mixed with an equal volume of a solution of esculetin and the mixture was plated onto Petri dishes containing Sabouraud's agar medium. […]

[2] = Solubility of coumarins in RPMI 1640 media and DMSO; type: physicochemical; settings: for DMSO Concentration: DMSO present for the stated solubility in RPMI 1640; for solubility: aqueous buffer, kinetic from dmso stock, pH = 7.0, in presence of the DMSO concentration of the same table line
Protocol: The solubility of the aglycones was compared to the respective glycoside in RPMI 1640 media and in DMSO.
as §3

[3] = test system: Trichophyton interdigitale NCPF335; experiment: Antifungal activity, growth in RPMI 1640 microtitre plates (OD 530 nm); type: cell-based
Protocol: as §1, §2, §3, §4

[4] = test system: Candida albicans, Cryptococcus neoformans, Saccharomyces cerevisiae and Aspergillus niger; settings: Sardari et al, Bioorg. Med. Chem. 7, 1999; cited from earlier work
[5] = old inoculum (cultured up to 9 weeks) versus young inoculum, FIG. 4

Row | solubility (in words) [2] | solubility ([2]; RPMI 1640 medium with DMSO co-solvent) [µM] | Compound | MIC [1] [µM] | activity of halogenated coumarin aglycone versus T. rubrum NCPF118 ([1]; at concentrations of 1-2 mM, FIG. 6) | DMSO Concentration [2] [% v/v] | MIC ([3]; Trichophyton interdigitale, T. interdigitale NCPF335, 30° C.) [µM] | solubility [2] [µM] | effect on the growth of Trichophyton rubrum NCPF118 ([1]; addition of β-glucosidase and esculin, FIG. 1) | sensitivity of older cultures of T. rubrum NCPF118 [1, 5] | effect on the growth of Trichophyton interdigitale NCPF335 ([3]; addition of β-glucosidase and esculin, FIG. 2) | sensitivity of older cultures of T. interdigitale NCPF335 [3, 5] | antifungal activity against the fungi tested [4] | solubility in 2×RPMI 1640 solution (in words) ([2]; without DMSO)
1 | only being soluble at low concentrations | 2000 | O=c1cc(C(F)(F)F)c2ccc(O)cc2o1 [4-(trifluoromethyl)coumarin, 7-hydroxy-4-(trifluoromethyl)coumarin] | 1000 (≈ 230 µg/mL) | significantly antifungal | 0.2 | – | – | – | – | – | – | – | –
2 | – | – | O=c1ccc2ccc(O)c(O)c2o1 [Daphnetin, 7,8-dihydroxycoumarin] | 500 (≈ 89.1 µg/mL) | – | 0.1 | 250 (≈ 44.5 µg/mL) | 5000 | – | – | – | – | – | –
3 | – | – | O=c1ccc2cc(OC3OC(CO)C(O)C(O)C3O)c(O)cc2o1 (centres unmarked) [Esculin, 6,7 dihydroxycoumarin-6-glucoside] | – | – | 0 | – | 20000 | significantly inhibits fungal growth | more sensitive | significantly inhibits fungal growth | more sensitive | minimal antifungal activity | dissolves readily
